ChEMBL document CHEMBL2074544 (J Lipid Res, 2000)

How the values were obtained:
[1] = target: T1, Oct1 (Solute carrier family 22 member 1) (Mus musculus, UniProt O08966); test: TP_TRANSPORTER: inhibition of TEA uptake (TEA: 50 uM, NMN: 10000 uM) in Oct1-expressing BALB/3T3 cells; type: functional, cell-based; parameters: scale not given: the % may be the effect or the level left; conditions: BALB/3T3 cells expressing Oct1, probe TEA (50 uM), read-out: Activity
T1 sequence (O08966 whole entry): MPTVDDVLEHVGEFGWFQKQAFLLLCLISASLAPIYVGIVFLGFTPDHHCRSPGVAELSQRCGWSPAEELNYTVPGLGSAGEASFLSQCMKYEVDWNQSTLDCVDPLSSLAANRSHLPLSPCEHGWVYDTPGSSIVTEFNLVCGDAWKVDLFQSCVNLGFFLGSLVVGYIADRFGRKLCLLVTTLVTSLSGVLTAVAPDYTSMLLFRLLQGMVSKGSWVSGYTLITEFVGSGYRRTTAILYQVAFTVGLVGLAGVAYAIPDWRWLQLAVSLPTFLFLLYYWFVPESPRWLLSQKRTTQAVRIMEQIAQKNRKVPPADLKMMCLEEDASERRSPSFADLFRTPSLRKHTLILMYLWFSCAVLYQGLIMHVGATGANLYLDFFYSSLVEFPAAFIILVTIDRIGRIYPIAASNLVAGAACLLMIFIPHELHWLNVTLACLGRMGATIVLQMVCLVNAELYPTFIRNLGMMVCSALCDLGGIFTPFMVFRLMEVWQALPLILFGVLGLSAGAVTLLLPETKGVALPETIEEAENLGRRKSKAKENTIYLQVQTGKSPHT

[2] = target: T1, Oct1 (Solute carrier family 22 member 1); test: TP_TRANSPORTER: inhibition of TEA uptake (TEA: 50 uM, Quinidine: 1000 uM) in Oct1-expressing BALB/3T3 cells; type: functional, cell-based; parameters: scale not given: the % may be the effect or the level left; conditions: BALB/3T3 cells expressing Oct1, probe TEA (50 uM), read-out: Activity
[3] = target: T2, Solute carrier family 22 member 1 (Mus musculus, UniProt O08966); test: TP_TRANSPORTER: inhibition of TEA uptake (TEA: 50 uM, TMA: 10000 uM) in Oct1-expressing BALB/3T3 cells; type: functional, cell-based; parameters: scale not given: the % may be the effect or the level left
T2 sequence (O08966 whole entry): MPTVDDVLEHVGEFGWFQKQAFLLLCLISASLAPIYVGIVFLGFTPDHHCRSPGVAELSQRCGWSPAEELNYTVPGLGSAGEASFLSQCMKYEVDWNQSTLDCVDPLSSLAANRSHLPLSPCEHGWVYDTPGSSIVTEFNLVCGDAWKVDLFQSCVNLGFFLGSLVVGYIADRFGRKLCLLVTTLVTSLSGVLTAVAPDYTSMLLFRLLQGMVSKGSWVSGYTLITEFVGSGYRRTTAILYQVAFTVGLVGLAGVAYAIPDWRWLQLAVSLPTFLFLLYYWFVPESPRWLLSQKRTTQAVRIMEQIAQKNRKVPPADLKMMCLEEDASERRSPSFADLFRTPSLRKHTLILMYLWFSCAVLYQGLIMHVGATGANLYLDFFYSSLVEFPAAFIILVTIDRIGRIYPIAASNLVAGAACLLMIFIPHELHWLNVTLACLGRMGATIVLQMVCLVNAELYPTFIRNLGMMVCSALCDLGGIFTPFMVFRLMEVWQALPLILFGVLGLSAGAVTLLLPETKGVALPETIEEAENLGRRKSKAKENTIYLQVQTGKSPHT

[4] = target: T1, Oct1 (Solute carrier family 22 member 1); test: in vitro; conditions: BALB/3T3 cells expressing Oct1, probe TEA (50 uM)
Description: TP_TRANSPORTER: inhibition of TEA uptake (TEA: 50 uM, Thiamine: 10000 uM) in Oct1-expressing BALB/3T3 cells

[5] = substrate: CCCC[N+](CCCC)(CCCC)CCCC; test: cells, lysate or membranes named
[6] = substrate: C[N+](C)(C)CCO; test: cells, lysate or membranes named

CNC(=O)c1cccnc1 [NICOTINYL METHYLAMIDE]
activity at 10000 uM [1]: 0%

C=C[C@H]1C[N@@]2CC[C@H]1C[C@@H]2[C@@H](O)c1ccnc2ccc(OC)cc12 [QUINIDINE]
activity at 1000 µM [2]: 0%

C[N+](C)(C)C.[Cl-] [TETRAMETHYLAMMONIUM]
Activity [3]: 0%

Cc1ncc(C[n+]2csc(CCO)c2C)c(N)n1 [THIAMINE ION]
activity at 10000 uM [4]: 0%

B1: Solute carrier family 22 member 1 (Mus musculus) (protein)
chain: MPTVDDVLEHVGEFGWFQKQAFLLLCLISASLAPIYVGIVFLGFTPDHHCRSPGVAELSQRCGWSPAEELNYTVPGLGSAGEASFLSQCMKYEVDWNQSTLDCVDPLSSLAANRSHLPLSPCEHGWVYDTPGSSIVTEFNLVCGDAWKVDLFQSCVNLGFFLGSLVVGYIADRFGRKLCLLVTTLVTSLSGVLTAVAPDYTSMLLFRLLQGMVSKGSWVSGYTLITEFVGSGYRRTTAILYQVAFTVGLVGLAGVAYAIPDWRWLQLAVSLPTFLFLLYYWFVPESPRWLLSQKRTTQAVRIMEQIAQKNRKVPPADLKMMCLEEDASERRSPSFADLFRTPSLRKHTLILMYLWFSCAVLYQGLIMHVGATGANLYLDFFYSSLVEFPAAFIILVTIDRIGRIYPIAASNLVAGAACLLMIFIPHELHWLNVTLACLGRMGATIVLQMVCLVNAELYPTFIRNLGMMVCSALCDLGGIFTPFMVFRLMEVWQALPLILFGVLGLSAGAVTLLLPETKGVALPETIEEAENLGRRKSKAKENTIYLQVQTGKSPHT
Km [5]: 43 µM
Km [6]: 42 µM
